Legend:
Algae suspension = test: Algae growth test on leached dry paint film; assay type: cell-based; details: ppm of BKC relatively to the paint, after leaching
Experimental: Test specimens were prepared by application of two paint coats on watercolor paper ([…]) for each biocidal composition. After application, test specimens were dried during 7 days. After drying, coated substrates were cut in 30 mm squares. The test specimens were evaluated after a leaching test where the coated substrates were leached for 8 and 24 hours in 2 L containers of water with a flow rate such that there are 6 changes of the water in a period of 24 hours. Coated substrates were dried to room temperature for 48 hours and then evaluated in terms of microbiological effectiveness. The algicidal effect on dry film was evaluated as described bellow: Inoculums were prepared with a suspension of algae species (Trentepohlia odorata, Chlorella sp and Scenedesmus quadricauda) at concentration of 10^6 cells/mL. Coated substrates were placed on the center of a pre-poured Bold's Basal Medium agar plates. A thin coat of the algae suspension was applied over the plates. Plates were incubated with humidity ≧85%, 25° C. and cycle of 12 hours light and 12 hours darkness. For each biocidal composition the test was done three times. The algae growth on the sample surface was evaluated weekly for 3 weeks using the following scale: […]

[1] = Tray test for leaching of biocides from paint film; assay type: physicochemical; details: paint with 1000 ppm biocidally active agent, 500 mL distilled water, detection limit 50 ppm
Experimental: Additionally, the leaching of biocides was evaluated through a tray test in which 50 g of the a paint formulation containing 1000 ppm of biocidally active agent was applied in the bottom of a tray (23.5×38.0 cm) each time and the painting procedure was repeated twice. The film was dried at room temperature for seven days and then 500 mL of distilled water was added to the tray, after 1, 3, 6 and 24 hours a 10 mL sample were taken and analyzed for determination of the biocides.

Substance: C12/C14-alkyldimethyl benzyl ammonium chloride [Dodigen ® 2808]
- Effective concentration against algae (ppm relatively to the paint) (Algae suspension): >>2000 ppm of BKC
- Effective concentration against algae (ppm relatively to the paint) (Algae suspension; listed as neat BKC): > 2000 ppm
- Tray test: biocide leached into water ([1]; 1 hour): 164 ppm
- Tray test: biocide leached into water ([1]; 3 hours): 177 ppm
- Tray test: biocide leached into water ([1]; 6 hours): 190 ppm
- Tray test: biocide leached into water ([1]; 24 hours): 224 ppm
